Laboratory results reported in patent publication US20100249419A1, “UTILIZATION OF NOVEL COMPOUNDS WITH AMYLOID AFFINITY AND METHOD OF PRODUCING THE SAME” (NIHON MEDI-PHYSICS CO., LTD., priority 2007, published 2010).

Assays:
[1] = biological target: T1, aggregated amylin (amyloid) (Homo sapiens, UniProt P10997); assay: Inhibition of binding of Thioflavin T to amyloid derived from amylin; conditions: Thioflavin T 5 μmol/L
T1 construct: Amylin (human) (manufactured by Wako); purchased Wako
T1 sequence (P10997 34-70 limits assumed): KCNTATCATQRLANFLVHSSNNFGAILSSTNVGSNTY
Method: Amylin is an amyloid accumulating in pancreas of type II diabetes.
(1) Amylin (human) (manufactured by Wako) was dissolved in phosphate buffer (pH 7.4) and shaken at 37° C. for 72 hours, to obtain a 1 mg/mL suspension of aggregated amylin (hereinafter referred to as amyloid suspension in this Example).
(2) According to the method described in a literature (Naiki, H., et al., Laboratory
(3) The amyloid suspension was dissolved in 50 mM phosphate buffer (pH 7.4) at a concentration of amylin of 15 μM.
(4) Samples in which each compound for evaluation and amyloid were dissolved in a 50 mM phosphate buffer (pH 7.4) at final concentrations shown in Table 9 were prepared.
(5) A sample in which 100 μL of 50 mM phosphate buffer (pH 7.4) and 50 μL of 50 mM glycin-NaOH buffer were mixed was made as a blank, and subjected to the same procedure as in (4) and used for a calculation of inhibition ratio.
(6) The microplate filled with the sample solutions was left to stand still at room temperature for 30 hours.
(7) Using the fluorescence strength measured above in (6), the following formula (6): […]
was used to determine the inhibition ratio.

β2-microglobulin amyloid = biological target: T2, β2-microglobulin amyloid (Homo sapiens, UniProt P61769); assay: In vitro binding of labeled compound to β2-m-amyloid (glass fiber filter); conditions: β2-m-amyloid 0.8 μg/mL, 22° C., 3 hours
T2 construct: purchased Oriental Yeast Co., ltd
T2 sequence (P61769 21-119): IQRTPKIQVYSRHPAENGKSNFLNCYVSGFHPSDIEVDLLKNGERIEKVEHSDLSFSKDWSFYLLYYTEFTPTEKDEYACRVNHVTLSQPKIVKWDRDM
Method: β2-microglobulin with cross -sheet structure was prepared by the following procedures (5) and (6) which was the method described in the known literature (Ohhashi, Y. et al., Journal of Biological Chemistry. 280, p. 32843-32848 (2005)) to which a little modification was made. […]
(8) A solution of Compound 1 which was synthesized by the method above in Example 3 was prepared (radioactivity of 500 MBq/mL), and diluted with a 0.1% bovine serum albumin-containing phosphate buffer (pH 7.4) to prepare a solution of 1.2-112.9 pM in terms of the total amount of 2-[4′-(2″-hydroxyethoxy)phenyl]-6-iodoimidazo[1,2-a]pyridine. […]
(11) The glass fiber filter used for the filtration of the mixture was washed with a 0.1% bovine serum albumin-containing phosphate buffer (0.2 mL×5), and radioactivity of the glass fiber filter was measured with an autowell gamma system (manufactured by Aloka, Type: ARC-7001).
(12) From the measurement results of (11), relation between the amount of Compound 1 binding to amyloid and addition amount of amyloid was evaluated. For a non-specific binding, it was determined from a sample in which no amyloid suspension was added above in (9) (Example 36). […]

| Substance | Inhibition ratio (%) of binding of amyloid (amylin) to Thioflavin T ([1]; compound 1.5 μmol/L) | Inhibition ratio (%) of binding of amyloid (amylin) to Thioflavin T ([1]; compound 15 μmol/L) | Inhibition ratio (%) of binding of amyloid (amylin) to Thioflavin T ([1]; compound 30 μmol/L) | Radioactivity of the glass fiber filter versus amyloid non-added group (β2-microglobulin amyloid) |
| --- | --- | --- | --- | --- |
| 2-(4′-ethoxyphenyl)-6-[^123I]iodoimidazo[1,2-a]pyridine [Compound 2] | 37.1% | 46.9% | 53.0% | – |
| 2-[4′-(2″-hydroxyethoxy)phenyl]-6-[^123I]iodoimidazo[1,2-a]pyridine [Compound 1] | 34.4% | 51.3% | 46.8% | all high compared to the group without amyloid suspension |
| 2-[4′-(3″-hydroxypropoxy)phenyl]-6-[^123I]iodoimidazo[1,2-a]pyridine [Compound 6] | – | – | – | all high compared to the group without amyloid suspension |
